Paper PMC7182274 (PLoS Pathogens, 2020)

Tests used:
[1] = target: T1, ΔNClpB (Francisella tularensis, UniProt A0Q8N0)
T1 construct: gene clpB

[2] = target: F. novicida DnaK (F. novicida)

Row | Compound | ATPase activity [1] | refolding of urea-denatured firefly luciferase with DnaK, DnaJ, GrpE and ATP [2]
1 | Nc1ncnc2c1ncn2[C@@H]1O[C@H](COP(=O)(O)OP(=O)(O)OP(=O)(O)O)[C@@H](O)[C@H]1O [ATP] | ΔNClpB had a slightly increased basal ATPase activity in the absence of casein | 
2 | F. novicida ClpB (wild-type) (natural protein) |  | 83%
